{"source": "patent US20100278983A1", "about": "“COMPOSITION OF MONASCUS FERMENTED PRODUCT WITH A FUNCTION THAT REDUCES BODY FATNESS FORMATION AND THE METHOD FOR MANUFACTURING THE SAME” (SUNWAY BIOTECH CO., LTD., priority 2009, published 2010)", "key": {"3T3-L1 preadipocyte [1]": {"test_system": "3T3-L1 preadipocyte", "assay": "Proliferation rate of 3T3-L1 preadipocyte", "assay_type": "cell-based", "settings": "for decrease of proliferation rate of 3T3-L1 preadipocyte: 24 hours", "excerpt": "(§1) 3T3-L1 preadipocyte is used as the experimental material in the in vitro cellular experiments to probe into the effects of Monascus fermented product on proliferation and differentiation in preadipocyte."}, "[2]": {"assay": "Body weight of rats fed with high-fat diet and Monascus fermented product", "assay_type": "in vivo, male Wister rats", "settings": "after 6 weeks of feeding, dosage not stated", "excerpt": "In order to estimate the effects of Monascus fermented product on the decrease in body fat mass development and body weight-lowering, the present invention carried out in vitro cellular experiments and in vivo experiments. 3T3-L1 preadipocyte is used as the experimental material in the in vitro cellular experiments to probe into the effects of Monascus fermented product on proliferation and differentiation in preadipocyte. Male Wister rates are used as the experimental animals in the in vivo experiments and fed with high-fat diet and Monascus fermented products at the same time, then determine the effects of the decrease in body fat mass development by many evaluation indicators after […] of breeding.\nRats are randomly divided into to 9 groups, each include 8 rats, on the principles that the initial average weights of rats are unanimous. Rats are fed with high-fat diet and Monascus fermented product at the same time in experiments and then sacrificed for every analyses after 6 weeks of feeding. […]"}, "3T3-L1 preadipocyte [3]": {"test_system": "3T3-L1 preadipocyte", "assay": "Differentiation rate of 3T3-L1 preadipocyte (content of triglyceride, TG)", "assay_type": "cell-based", "settings": "Mus musculus; for inhibition at 125 µg/mL: 0.125 mg/mL", "protocol": "as §1\nIn this research, 50, 100 and 200 μg/mL of water extracts of red mold rice and red mold dioscorea are added to 3T3-L1 preadipocyte respectively during differentiation induction and then the cells are collected to be analyzed the content of triglyceride after 8 days of differentiation. TG synthesis is an indicator for the differentiation late phase of the fat cells, thus the TG content in cells are usually used to determine the differentiation rate."}}}
{"compound": "CC[C@H](C)C(=O)O[C@H]1C[C@@H](C)C=C2C=C[C@H](C)[C@H](CC[C@@H]3C[C@@H](O)CC(=O)O3)[C@H]21", "note": "[Monacolin K]", "values": [{"measurement": "decrease of proliferation rate of 3T3-L1 preadipocyte", "setting": "3T3-L1 preadipocyte [1]; 1.25 μg/mL", "value": 13.0, "unit": "%"}, {"measurement": "decrease of proliferation rate of 3T3-L1 preadipocyte", "setting": "3T3-L1 preadipocyte [1]; 2.5 μg/mL", "value": 18.2, "unit": "%"}, {"measurement": "decrease of proliferation rate of 3T3-L1 preadipocyte", "setting": "3T3-L1 preadipocyte [1]; 5 μg/mL", "value": 23.9, "unit": "%"}, {"measurement": "decrease of proliferation rate of 3T3-L1 preadipocyte", "setting": "3T3-L1 preadipocyte [1]; 10 μg/mL", "value": 28.6, "unit": "%"}, {"measurement": "Final body weight", "setting": "[2]", "value": 472.4, "unit": "g"}, {"measurement": "Increment of body weight", "setting": "[2]", "value": 141.1, "unit": "g"}]}
{"compound": "C/C=C/C1=CC2=C(CO1)C(=O)[C@]1(C)OC(=O)[C@H](C(=O)CCCCCCC)[C@H]1C2", "note": "[ankaflavin]", "values": [{"measurement": "inhibition at 125 µg/mL", "setting": "3T3-L1 preadipocyte [3]", "value": 41.2, "unit": "%"}, {"measurement": "inhibition at 250 µg/mL", "setting": "3T3-L1 preadipocyte [3]; 0.25 mg/mL", "value": 29.9, "unit": "%"}]}
{"compound": "C/C=C/C1=CC2=C(CO1)C(=O)[C@]1(C)OC(=O)[C@H](C(=O)CCCCC)[C@H]1C2", "note": "[monascin]", "values": [{"measurement": "inhibition at 1000 µg/mL", "setting": "3T3-L1 preadipocyte [1]; Mus musculus, 3T3-L1, 1 mg/mL, 72 hours", "value": 8, "unit": "%"}, {"measurement": "inhibition at 125 µg/mL", "setting": "3T3-L1 preadipocyte [3]", "value": 31.2, "unit": "%"}]}
